The values that follow come from patent US20200010857A1 (priority 2016, published 2020).

Assay [1] relates to Rhodococcus aetherivorans BCP1. Briefly: Minimal Inhibitory Concentration (MIC) of tellurite, kill curve. The format is cell-based. Conditions: for log reduction of BCP1 viable cells: 24 h. As to the method: The strain Rhodococcus aetherivorans BCP1 (DSM 44980) was pre-cultured in 250 mL Erlenmeyer Baffled Flask for 2 days, containing 25 mL of Luria-Bertani medium (here indicated as LB) [composed of (g/L) NaCl, 10; Yeast Extract, 5; Tryptone, 10]. When necessary, the medium was solidified by adding 15 g/L of Agar. BCP1 cells were then inoculated (1% v/v) and grown for 5 days in 50 mL of LB medium supplied with either 100 (0.4 mM) or 500 (2 mM) μg/mL of K2TeO3. Here we refer to this first bacterial growth as unconditioned. After this growth step, BCP1 cells were re-inoculated (1% v/v) and cultured for other 5 days in 50 mL of fresh LB medium and 100 or 500 μg/mL of K2TeO3. This secondary bacterial growth is here defined as conditioned. Each culture was incubated aerobically at 30° C. with shaking (150 rpm). In order to evaluate the bacterial growth rate, every 24 h an aliquot (100 μL) of BCP1 cells was collected from each culture and serially diluted in sterile saline solution (NaCl 0.9% w/v). The cells were recovered on LB agar plates for 48 h at 30° C. The number of growing cells is reported as average of the Colony Forming Unit per milliliter (CFU mL^−1) counted for each biological trial (n=3) with standard deviation. All the reagents were purchased from Sigma-Aldrich®.
After 24 h of incubation the number of viable cells was determined by spot plates count on LB agar recovery plates. The assay was conducted in triplicate and the data are reported as average of the CFU mL-1 counted with standard deviation. The established MIC and corresponding kill curve was used to choose the best concentration of K2TeO3 to use for nano-material production.

The test system of a further assay is Salinicoccus sp. QW6. Conditions: K2TeO3 in rich medium, aerobic; Amoozegar et al. (2008); cited from earlier work.
A further assay deals with Lysinibacillus sp. ZYM-1. Conditions: K2TeO3 in rich medium, aerobic; Zao et al. (2016); cited from earlier work.
The next assay has as its system Bacillus sp. STG-83. Conditions: K2TeO3 in rich medium, aerobic; Soudi et al.(2009); cited from earlier work.
Assay [2] relates to Corynebacterium difteriaes. Conditions: K2TeO3 in rich medium, aerobic; Tucker et al. (1961); cited from earlier work.
The subject of the next assay is Paenibacillus TeW. Conditions: K2TeO3 in rich medium, aerobic; Chien et al. (2009); cited from earlier work.
A further assay deals with Bacillus sp. BZ. Conditions: K2TeO3 in rich medium, aerobic; Zare et al. (2012); cited from earlier work.
In the next assay the test system is bacterial cells. Conditions: cited from earlier work.
The subject of assay [3] is Rhodococcus aetherivorans BCP1. Briefly: Tolerance of BCP1 towards SeO3^2− oxyanions (MIC^Se). The format is cell-based. On the procedure:
(§1) Rhodococcus aetherivorans BCP1 strain (DSM 44980) was pre-cultured in 250 mL Erlenmeyer Baffled Flask for 48 h in 25 mL of Luria-Bertani medium (indicated as LB) [containing (g/L) NaCl, 10; Yeast Extract, 5; Tryptone, 10]. When necessary the medium was solidified by adding 15 g/L of Agar. BCP1 cells were then inoculated (1% v/v) and grown for 120 h in 50 mL of LB broth to which was added either 0.5 mM or 2 mM of Na2SeO3. This first bacterial growth is here defined as unconditioned. After the unconditioned growth, BCP1 cells were re-inoculated (1% v/v) and cultured for other 120 h in 50 mL of fresh LB medium supplied with a new addition of either 0.5 or 2 mM of Na2SeO3. Here we refer to this bacterial growth as conditioned. Unconditioned or conditioned cultures were incubated aerobically at 30° C. with shaking (150 rpm). Bacterial growth rate was evaluated by spot plate count method every 24 h over the incubation time. LB agar plates containing the spotted cells were recovered for 48 h at 30° C. The number of growing cells is reported as mean the Colony forming Unit (log10[CFU/mL]) with standard deviation. All the reagents were purchased from Sigma-Aldrich®.
The BCP1 strain has been exposed to different concentrations of Na2SeO3, ranging from 0.5 to 200 mM as initial concentration to evaluate its tolerance towards these toxic oxyanions. Briefly, after 24 h of exposure to each concentration of Na2SeO3 tested, BCP1 cells were serially diluted in sterile saline solution (NaCl 0.9% w/v) and the number of viable cells were determined by spot plates count on LB agar recovery plates. The assay was conducted in triplicate and the viable cell numbers are indicated as the average of the log10[CFU/mL] with standard deviation.

The subject of assay [4] is Rhodococcus aetherivorans BCP1. Briefly: Growth of BCP1 in LB supplied with Na2SeO3 (spot plate count). The format is cell-based. Conditions: unconditioned cells. On the procedure:
as §1

Like-named read-outs stand apart in the source and are kept apart here.

As to `O=[Te]([O-])[O-].[K+].[K+]` [K2TeO3, potassium tellurite], the “number of BCP1 viable cells” value in assay [1] (24 h exposure to 100 μg/mL K2TeO3) was 5.00·10^5 CFU/mL; in [1] (24 h exposure to 500 μg/mL K2TeO3), 1.00·10^5 CFU/mL. The “decrease of number of BCP1 viable cells” value in [1] (24 h exposure to 100 or 500 μg/mL K2TeO3) is “less than 1 log”. In addition, the “Minimal Inhibitory Concentration (MIC) of TeO3^2−” value in assay [1] (24 h exposure to K2TeO3 in LB, aerobic) was 2800 µg/mL. Also, the “Minimal Inhibitory Concentration (MIC^Te)” value in assay [1] (24 h exposure to K2TeO3 in rich medium (LB), aerobic) was 11200 µM. The “log reduction of BCP1 viable cells” value stood at 1 log in assay [1] (K2TeO3 varied from 100 to 1000 μg/mL (0.4-4 mM)) and 2 log in assay [1] (K2TeO3 varied from 100 to 2000 μg/mL (0.4-8 mM)). Besides, the “log reduction of viable cells vs number at time of inoculation” value in assay [1] (at the MIC, 2800 μg/mL K2TeO3, 24 h) turned out to be 3 log. Further, the “BCP1 strain tolerance relative to MIC^Te of Corynebacterium difteriaes” value in assay [1] (ratio of MIC^Te values) is given as “ten times higher”. For the same compound, the “MIC^Te” value was 12000 µM with Salinicoccus sp. QW6; 2000 µM with Lysinibacillus sp. ZYM-1; 1250 µM in the assay on Bacillus sp. STG-83; 1000 µM in [2]; 1000 µM in the assay on Paenibacillus TeW; 800 µM with Bacillus sp. BZ. For the same compound, the “MIC^Te” value in the assay on bacterial cells (aerobic growth) was 2 µg/mL; in the assay with bacterial cells (anaerobic growth), 250 µg/mL.
In the case of `O=[Se](O)O` [Na2SeO3, sodium selenite], the “log reduction in number of viable cells” value in assay [3] (0.5 mM versus 200 mM Na2SeO3, 24 h) turned out to be 2 log. The “number of viable cells” value was 2.00·10^6 CFU/mL in assay [3] (24 h exposure to 0.5 mM Na2SeO3); 2·10^6 CFU/mL in [3] (24 h exposure to 0.5 mM Na2SeO3, listed as SeO3^2−); 1.72·10^6 CFU/mL in assay [3] (24 h exposure to 2 mM SeO3^2−); 6.17·10^4 CFU/mL in assay [3] (24 h exposure to 200 mM Na2SeO3); 1.2·10^6 CFU/mL in assay [4] (0.5 mM Na2SeO3, 120 h). Also, the “BCP1 tolerance, times higher than MIC^Se of Streptomyces microflavus FSHJ31” value in [3] (ratio of MIC^Se values) is on record as 80 times. In addition, in assay [3] (ratio of MIC^Se values), the “BCP1 tolerance, times higher than MIC^Se of Streptomyces sp. ES2-5” value was determined as 4 times. Besides, in [4] (0.5 mM Na2SeO3, 72 h), the “number of live cells counted” value is given as 6.33·10^6 CFU/mL. For the same compound, the “number of growing cells” value in [4] (2 mM Na2SeO3, 72 h) is given as 4.24·10^6 CFU/mL; in [4] (2 mM Na2SeO3, 120 h) it was 9.83·10^5 CFU/mL.
